{"source": "patent US20030096264A1", "about": "“Multi-parameter high throughput screening assays (MPHTS)” (Psychiatric Genomics, Inc., priority 2001, published 2003)", "test_system": "stem cells isolated from rat cortex, differentiated with CNTF (astrocyte cultures)", "assay": "Expression profile of CNTF-differentiated rat cortex stem cells treated with VIP", "format": "cell-based", "conditions": "5 μM VIP, one day", "method": "VIP signature genes. Similar experiments were also performed in which cells were treated with vasoactive intestinal polypeptide (VIP), another drug useful for treating neuropsychiatric disorders. In more detail, stem cells were isolated and propagated from rat cortex. At passage 1, they were treated with 10 ng/ml ciliary neurotrophic factor (CNTF, available from R&D Systems, MN) for four days. 10 ng/ml of basic fibroblast growht factor (bFGF, R&D Systems, MN) was present in the medium on the first day of the differentiation regiment. […] Cells were then treated with 5 μM VIP (Sigma) for one day and harvested for expression profiling.\nSignature genes were identified that changed expression when contacted with VIP compared to untreated cells. Each of these genes is listed below in Table 4, along with the measured expression ratio (ρ) and the GenBank Accession number for an exemplary cDNA sequence. The exemplary cDNA sequence for each gene is also provided here in the accompanying sequence listing. Accordingly, an appropriate sequence identifier is also specified in Table 4 for each listed gene.", "data": [{"substance": "vasoactive intestinal polypeptide [VIP]", "values": [{"measurement": "expression ratio σ: Cdk-inhibitor p57Kip2", "setting": "vs untreated, U22399 SEQ ID NO: 163", "result": "−1.8"}, {"measurement": "expression ratio σ: Rat EGF like protein", "setting": "AF112153 SEQ ID NO: 164", "result": 3.8}, {"measurement": "expression ratio σ: Rat Interferon inducdible protein 16", "setting": "AF164040 SEQ ID NO: 168", "result": 1.8}, {"measurement": "expression ratio σ: similar to erythrocyte protein band 7.2", "setting": "BC003789 SEQ ID NO: 166", "result": 2.2}, {"measurement": "expression ratio σ: rat Dahl salt resistant strain clone etb", "setting": "U02094 SEQ ID NO: 169", "result": 1.8}, {"measurement": "expression ratio σ: Rat tyrosine phosphatase like protein IA-2a", "setting": "U40682 SEQ ID NO: 167", "result": 2.0}, {"measurement": "expression ratio σ: Rat interferon induced mRNA", "setting": "X61381 SEQ ID NO: 165", "result": 2.3}]}]}
